In US20070244071A1, “Treatment of proliferative diseases” (MOUNT SINAI HOSPITAL, priority 2006, published 2007):

How the values were obtained:
[1] = tested on: Mgat5^+/+(2.6) mammary carcinoma cells; test: Nuclear Smad2/3 and Erk-p (TGF-β / EGF sensitivity) in Mgat5^+/+(2.6) cells; format: cell-based, mice; conditions: Mgat5^+/+(2.6) cells in culture, 1% FBS, steady state
DR26 cells = test: Steady-state nuclear Smad2-p and Erk-p, DR26 cells; format: cell-based; conditions: DR26 cells in culture, 1% FBS
MvLu cells = test: Steady-state nuclear Smad2-p and Erk-p, MvLu cells; format: cell-based; conditions: MvLu cells in culture, 1% FBS
[2] = tested on: TGF-β induced Smad2/3 nuclear translocation; test: TGF-β-dependent Smad2/3 nuclear translocation assay in NMuMG cells; format: cell-based, Murine
Protocol: NMuMG epithelial cells were plated in 96 well Coming tissue plates (Coming) at a density of 5000 cells/well in 100 μl of DMEM, 10% FBS, 10 μg/ml insulin (Gibco) for 24 h. The medium was replaced with 100 μl of DMEM, 10 μg/ml insulin, 0.2 mg/ml BSA (fraction V) for 18 h. Test compounds at 10 μM were added and cells were incubated for 60 min at 37° C. TGF-β1 (R&D System, Minneapolis, Minn.) was added at 50 pM and incubated for a further 50 min. Cells were then fixed with 4% paraformaldehyde in PBS for 15 min and washed 3 times in PBS. Cells were permeabilized with 100% methanol for 2 min, then washed 3 times with PBS, followed by the addition of 150 μl PBS, 10% FBS. Plates were stored overnight at 4° C. Anti-Smad2/3 or anti-phospho-Smad2 antibodies (Transduction Laboratories, San Jose, Calif.) diluted 1:1000 in PBS plus 10% FBS were added at 50 μl/well and the plates were incubated for 1 h at 20° C. […] The wells were washed 3 times with PBS and imaged and quantified on the Array Scan (Cellomics Inc., Pittsburgh, Pa.) using the cytoplasmic-nuclear translocation program. To measure Erk phosphorylation (Erk-p) and nuclear translocation, mouse anti-phospho-Erkl/2 (Thr202/Tyr204) (Sigma, St. Louis, Mo.) was added at 1/1000 in PBS plus 10% FBS for 1 h at 20° C. The nuclear-cytoplasmic difference was determined for 100 cells per well, generating a mean±SE for each condition.

[3] = tested on: non-transformed MvLu epithelial cells; test: Cytotoxicity / cell growth assay, MvLu cells; format: cell-based; conditions: increasing concentrations, DMEM 1% FBS, AlamarBlue, 72 h (source says 48 h)
Protocol: In brief, 1000 cells/well were seeded in 96 well plates and cultured for 24 h prior to the addition of DAM-1976. Viable cells were measured at 48 or 72 h by adding of either XTT or AlamarBlue with further incubation at 37° C. For the XTT assay, absorbance was measured at 500 nm, 4 h after addition of XTT. Fluorescence with excitation at 544 nm and emission at 590 nm were measured 24 h after addition of AlamarBlue.

In the case of “TGF-β: transforming growth factor-beta cytokine; TGF-β1 (R&D System) used as stimulus and growth comparator”, the “basal nuclear Erk-p” value [1] is reported as “enhanced”, the “basal nuclear Smad2-p” value [1] is reported as “not altered” and the “basal nuclear Erk-p” value (DR26 cells) is reported as “a decline or no change”. For the same substance, the “basal nuclear Smad2-p” value (DR26 cells) was “not altered”, the “basal nuclear Erk-p” value (MvLu cells) was “a decline or no change” and the “basal nuclear Smad2-p” value (MvLu cells) was “increased slightly”. The “increase in nuclear Smad2/3 protein” value ([2]; 20 min after addition of cytokine, sustained until 50 min) was 10 fold, the “saturation of Smad2/3 nuclear translocation” value ([2]; dose of 50 pM) was about 80% and the “cell growth (cell number)” value [3] was “inhibited”.
